One data set has as its system human hepatoma G2 cells. As to the kind of experiment: Cytotoxicity assay (XTT colorimetric), Hep G2. Type of data set: cell-based. The note with it: Homo sapiens, HepG2; 48 h of drug exposure. For orientation: Tetrazolium dyes change colour on reduction, which living cells bring about.
For data set [1], the system named is transcriptional activity of hTERT. As to the kind of experiment: SEAP reporter assay of hTERT expression, PhTERT-SEAP (hTERT-BJ1). It counts as cell-based, human. Conditions: Homo sapiens, hTERT-BJ1, read-out: Relative SEAP activity (%). An outline of the steps: (§1)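 H1299 or hTERT-BJ1 cells stably carrying hTERT- or CMV-promoter–SEAP constructs (G418-selected), treated with compounds for 24 h at 37 °C. Media heated 65 °C for 10 min, mixed with diethanolamine buffer and 12 mM p-nitrophenyl phosphate; SEAP activity taken as the rate of A405 increase.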

Data set [2] is described as follows: MTT relative viability, PhTERT-SEAP (H1299) cells. The note with it: human.
A further data set has as its system rat glioma C6 cells. Description: Cytotoxicity assay (XTT colorimetric), C6 cells. It counts as cell-based. The note with it: Rattus norvegicus, C6; 48 h of drug exposure.
The test system of data set [3] is iron-induced lipid peroxidation in rat brain homogenates. As to the kind of experiment: Iron-induced lipid peroxidation in rat brain homogenates. Conditions: 10 mM; for Inhibition of LP(10 mM): mean percent inhibition (Table 3).
Data set [4] deals with transcriptional activity of hTERT. Description: SEAP reporter assay of hTERT expression, PhTERT-SEAP (H1299). It counts as cell-based, human. Conditions: Homo sapiens, NCI-H1299, H1299, read-out: Relative SEAP activity (%). The method, boiled down:
as §1
For orientation: In a reporter assay the amount or activity of a reporter protein is the signal.

Data set [5] can be described thus: MTT relative viability, PhTERT-SEAP (hTERT-BJ1) cells. The note with it: human.

What is called IC50 is the midpoint of a concentration-inhibition curve. Low values mean higher potency, high ones lower potency. The melting point is the temperature, or range, at which the solid turns liquid. Usually viability stands for a read-out of living cells in per cent, often relative to untreated cells.

`O=C1c2cccc(SCCCCCCO)c2C(=O)c2cccc(SCCCCCCO)c21` [IIe, 1,5-Bis(hydroxyhexylthio)-anthraquinone] had a melting point of 195 to 196 °C. The same compound had an IC50 in the data set on human hepatoma G2 cells of 49.3 ± 2.1 µM. Further, the activity at 2.1 µM in data set [1] (2.1 μM) came out at 140 ± 9.7%. For the same compound, in data set [1] (21 μM), the activity at 21 µM was found to be 128 ± 14.4%. Besides, the activity at 210 µM in data set [1] (210 μM) came to 75 ± 17.4%. Also, in data set [2], the viability at 48 h, 2.1 µM stood at 99 ± 6.2%; the viability at 48 h, 21 µM turned out to be 94 ± 3.9%; the viability at 48 h, 210 µM amounted to 36 ± 4.2%. The compound also displayed a 50% inhibitory concentration (IC50) with rat glioma C6 cells of 31.7 ± 1.6 µM. Also, the “LP (%) (10 mM)” value in data set [3] (relative percentage of inhibition (Table 1)) is given as 54 ± 1.9%. Further, the activity at 2.1 µM in data set [4] (2.1 μM) is 110 ± 6.1%. Besides, the activity at 21 µM in data set [4] (21 μM) was 100 ± 5.5%. Also, the activity at 210 µM in data set [4] (210 μM) was determined as 68 ± 5.9%. Also, in data set [5], the viability at 48 h, 2.1 µM came out at 99 ± 6.2%; the viability at 48 h, 21 µM is 70 ± 2.2%; the viability at 48 h, 210 µM is 40 ± 4.7%.
In turn, `CCCC(=O)Oc1cccc2c1C(=O)c1cccc(OC(=O)CCC)c1C2=O` [IIIb, 1,5-Bis(butyryloxy)-anthraquinone] came in with a melting point of 211 to 213 °C. The IC50 in the data set with human hepatoma G2 cells is 0.02 ± 0.01 µM. Also, the activity at 2.6 µM in data set [1] (2.6 μM) amounted to 107 ± 11.9%. Besides, the activity at 26 µM in data set [1] (26 μM) turned out to be 119 ± 8.3%. Moreover, in data set [1] (260 μM), the activity at 260 µM is 134 ± 3.8%. Further, in data set [2], the viability at 48 h, 2.6 µM worked out at 107 ± 5.6%; the viability at 48 h, 26 µM stood at 106 ± 3.2%; the viability at 48 h, 260 µM came to 87 ± 6.5%. This compound yielded an IC50 in the data set on rat glioma C6 cells of 38.5 ± 2.8 µM. In addition, in data set [3], the “Inhibition of LP(10 mM)” value is 54 ± 2.2%. The activity at 2.6 µM in data set [4] (2.6 μM) was 114 ± 7.9%. The activity at 26 µM in data set [4] (26 μM) was 118 ± 8.4%. Further, in data set [4] (260 μM), the activity at 260 µM was found to be 111 ± 4.4%. For the same compound, in data set [5], the viability at 48 h, 2.6 µM was determined as 109 ± 5.1%; the viability at 48 h, 26 µM was 106 ± 5.6%; the viability at 48 h, 260 µM was 85 ± 6.6%.
Take `CCCCCC(=O)Oc1cccc2c1C(=O)c1cccc(OC(=O)CCCCC)c1C2=O` [IIIc, 1,5-Bis(hexanoyloxy)-anthraquinone]: the melting point lay in the range of 183 to 184 °C. Besides, the 50% inhibitory concentration (IC50) in the data set with human hepatoma G2 cells amounted to 36.2 ± 2.5 µM. The activity at 2.3 µM in data set [1] (2.3 μM) is 147 ± 18.8%. Further, the activity at 23 µM in data set [1] (23 μM) came out at 149 ± 16.1%. Further, the activity at 230 µM in data set [1] (230 μM) worked out at 124 ± 5.3%. In data set [2], the viability at 48 h, 2.3 µM came out at 117 ± 5.1%; the viability at 48 h, 23 µM was 114 ± 4.7%; the viability at 48 h, 230 µM amounted to 106 ± 4.3%. 39.1 ± 4.1 µM corresponded to half-maximal inhibition with rat glioma C6 cells (IC50). In addition, the “Inhibition of LP(10 mM)” value in data set [3] is −55 ± 1.5^ %. Also, the activity at 2.3 µM in data set [4] (2.3 μM) amounted to 91 ± 9.9%. In addition, the activity at 23 µM in data set [4] (23 μM) was 95 ± 17.4%. Further, in data set [4] (230 μM), the activity at 230 µM was 95 ± 10.5%. In addition, in data set [5], the viability at 48 h, 2.3 µM came to 119 ± 9.4% and the viability at 48 h, 23 µM is 98 ± 13.4%. The viability at 48 h, 230 µM in data set [5] (hTERT-BJ1 cells, stable PhTERT-SEAP reporter clone) is 62 ± 6.4%.
As for `O=C(Oc1cccc2c1C(=O)c1cccc(OC(=O)c3ccccc3)c1C2=O)c1ccccc1` [IIIe, 1,5-Bis(benzoyloxy)-anthraquinone], the melting point lay in the range of 336 to 338 °C. Besides, the half-inhibitory concentration (IC50) with human hepatoma G2 cells was 47.7 ± 5.5 µM. Moreover, the activity at 2.2 µM in data set [1] (2.2 μM) was 137 ± 10%. In data set [1] (22 μM), the activity at 22 µM is 122 ± 9.6%. Besides, the activity at 220 µM in data set [1] (220 μM) is 84 ± 21.7%. In data set [2], the viability at 48 h, 2.2 µM is 99 ± 7.3%; the viability at 48 h, 22 µM is 60 ± 11.9%; the viability at 48 h, 220 µM stood at 33 ± 4.7%. Also, 38.7 ± 3.6 µM corresponded to half-maximal inhibition in the data set on rat glioma C6 cells (IC50). In addition, the “Inhibition of LP(10 mM)” value in data set [3] is reported as −50 ± 1.9^ %. For the same compound, the activity at 2.2 µM in data set [4] (2.2 μM) is 88 ± 10%. Further, in data set [4] (22 μM), the activity at 22 µM turned out to be 94 ± 8%. Further, in data set [4] (220 μM), the activity at 220 µM was found to be 86 ± 4.7%. Further, in data set [5], the viability at 48 h, 2.2 µM stood at 103 ± 6.5%; the viability at 48 h, 22 µM came out at 87 ± 9.8%; the viability at 48 h, 220 µM was 51 ± 4.6%.

Values taken from patent publication US20050009924A1 (priority 2003, published 2005).
